Laboratory results as given in patent US20240209302A1, “SYSTEMS, METHODS, AND DEVICES FOR EX VIVO ANALYSIS OF RESECTED TISSUE SAMPLES” (The United States of America,as represented by the …, priority 2020, published 2024).

Legend:
Type in all cases: cell-based, human
[1] = test system: SDH-B deficient GIST metastases to the peritoneum; assay: Decitabine treatment of GIST tissue in ex vivo perfusion system (H&E, IHC, live imaging); conditions: 0-10 μM in perfusate; tissues harvested after 4 days
Excerpt: The system of FIG. 7A is also well-suited as a translational tool and/or as a tool for enrollment into clinical trials, especially where pre-clinical models are otherwise non-existent. For example, SDH-B deficient GIST is a rare subtype driven by epigenetic silencing of the gene, unresponsive to conventional agents (imatinib) and with no available cell lines or mouse models. Tissue from a patient with SDH-B deficient GIST was utilized in the system of FIG. 7A to investigate decitabine, a potential treatment option being evaluated for this population. Using early demethylation markers as a read-out, changes associated with decitabine treatment at physiologic and supraphysiologic doses were not detected. […] Sample platforms of tissue from the patient with GIST metastases to the peritoneum were cultured in perfusate supplemented with 0-10 μM decitabine. […] Stack projections of live images of control sample at day 0 and day 3 as well as a sample treated with 5 μM decitabine with fluorophore-conjugated antibodies against CD45 and CD117 also show no changes in the decitabine-treated tissue.
In any of the above discussed examples, tissue from system 700 was subject to similar histopathologic evaluations. […] Viability on H&E was defined as preservation of normal tissue architecture, intact nuclei, and normal population of immune cells (qualitative and quantitative). […]

[2] = test system: liver capsule tissue from a colorectal cancer patient with liver metastases (colorectal adenocarcinoma); assay: Check-point inhibitor evaluation in ex vivo perfusion system, colorectal cancer tissue (timeseries imaging); conditions: 5 μg/ml for 4 hr
Protocol: (§1) The system of FIG. 7A is well-suited to evaluate immunotherapeutic agents. Given that check-point inhibitors have made their way into the clinic for seemingly most solid tumors, such inhibitors were evaluated in the system of FIG. 7A using a tumor from a patient with gastric adenocarcinoma and a tumor from a patient with colorectal adenocarcinoma. Neither of these histologies have significant response rates to check-point inhibitors outside of select genomic subpopulations, which was not applicable to either patient in this example. FIGS. 12A-12D illustrates results of this example.
(§2) In the top panel, sample platforms with sidewall peritoneum from a gastric cancer patient were incubated with immune checkpoint inhibitor pembrolizumab for 2 days followed by Alexa488CD44/Alexa594CD45 antibodies. Maximum projections of 2-photon images illustrate the intimate contact between CD45-positive cells and the cancer cells. The bottom panel provides a timeseries montage of images taken from liver capsule tissue mounted on sample platforms from a colorectal cancer patient with liver metastases incubated with 5 μg/ml of pembrolizumab for 4 hr. […]
(§3) Image acquisition was performed on an inverted Leica SP8 setup using multiphoton excitation at 870 nm together with a 25×/0.95 W VISIR lens. […] Images were analyzed using ImageJ software. […]

[3] = test system: sidewall peritoneum from a gastric cancer patient (gastric adenocarcinoma); assay: Check-point inhibitor evaluation in ex vivo perfusion system, gastric cancer tissue (2-photon imaging); conditions: incubated for 2 days; Alexa488CD44/Alexa594CD45 antibodies
Protocol: as §1, §2, §3

[4] = test system: resected cholangiocarcinoma tumor and liver capsule; assay: Tivozanib treatment of cholangiocarcinoma tissue in ex vivo perfusion system (H&E, Ki67)
Protocol: In another example, the system of FIG. 7A was used to identify a new target in patients with cholangiocarcinoma. The target is a kinase, SLK, that activates AKT signaling leading to aggressive tumor biology and poor patient outcomes. Although no SLK-specific inhibitor exists, the kinome profiles of available kinase inhibitors was evaluated, and tivozanib was identified. Using tissue from a patient with cholangiocarcinoma in the system of FIG. 7A, tivozanib was evaluated. […] Resected cholangiocarcinoma tumor as well as liver capsule mounted on sample platforms treated with 0-1 mg/ml tivozanib were prepared for IHC, stained with H&E and Ki67 antibody. Cells in control and drug-treated platforms were evaluated for viability, degeneration and necrosis.
In any of the above discussed examples, tissue from system 700 was subject to similar histopathologic evaluations. For example, the tissues were preserved in the 10% neutral buffered formalin, then through the tissue processor and embedded in paraffin and cut at 5-micron sections for hematoxylin and eosin (H&E) slides. Slides were prepared for H&E staining and immunohistochemistry, respectively to detect CD3 (T cells), CD68 (macrophages), Ki-67 and MIBI (mitotic activity). CD3 and CD68 were predilute antibodies as purchased, while Ki-67 and (MIB-1) were run at 1:200 dilution. All stains were done on an automated immunostainer (Ventana Benchmark Ultra). Viability on H&E was defined as preservation of normal tissue architecture, intact nuclei, and normal population of immune cells (qualitative and quantitative). Each sample was compared against day 0 control samples. Ki67 or stains were performed to assess proliferative activity of the tumor cells. Samples stained with Ki67 or MIB1 on day 4 were compared to day 0 samples to confirm no change in proliferative activity.

Nc1ncn([C@H]2C[C@H](O)[C@@H](CO)O2)c(=O)n1 [decitabine]
methylation status of GIST (SDHB, 5-HMC, 5-MC IHC) [1]: no effect
proliferation activity of GIST (Ki67) [1]: no effect

pembrolizumab
immune cell engagement with tumor cells [2]: Immune cell engagement was observed
tumor cell lysis / apoptosis of CD44-positive cancer cells bound by CD45-positive cells [2]: captured tumor cell lysis
binding of immune cells (CD45-positive) to cancer cells [3]: stimulates binding of immune cells to cancer cells

COc1cc2nccc(Oc3ccc(NC(=O)Nc4cc(C)on4)c(Cl)c3)c2cc1OC [tivozanib]
cell death in liver metastases (viability, degeneration, necrosis) ([4]; 0-1 mg/ml, FIGS. 12C-12D): induces cell death
tumor cell effect at physiologic doses ([4]; physiologic doses): tumor cell degeneration
tumor cell effect at supraphysiologic concentrations ([4]; supraphysiologic concentrations): frank necrosis
